Our source for the inhibition values is paper PMC10940605, “Design, synthesis and in vitro anticancer activity of some new lomefloxacin derivatives” (Scientific Reports, 2024).

What all share (experiment): NCI-60 SRB screen
Common to all, as to type: cell-based

For one assay, the system named is K-562. The conditions noted are these: Homo sapiens, K562; K-562, 10^–5 Molar; read-out: Percent growth inhibition. The protocol:
(§1) All newly synthesized compounds were selected and screened for anticancer activity against 60 human cancer cell lines representing 9 types of tumors including leukemia, melanoma, lung, colon, CNS, ovarian, renal, prostate, and breast cancers at the National Cancer Institute (NCI), Bethesda, USA. Screening was performed utilizing a single dose (10^−5 M concentration) and cells were incubated for 48 h. The end point was determined using sulforhodamine B (SRB) dye.
(§2) In this study, all the 16 newly synthesized compounds were submitted to the National Cancer Institute (USA) for anticancer evaluation and were selected and evaluated using 60 different human tumor cell lines representing lung, colon, CNS, ovarian, renal, prostate, breast cancers as well as leukemia and melanoma. A single dose (10^–5 Molar) was used for the initial screening for evaluation of anticancer activity. The 60 human cancer cell lines were provided by the national cancer institute biomedical research campus in Frederick, Maryland.
(§3) 60 different human cancer cell lines were utilized to screen the newly synthesized compounds for anticancer activity according to the previously reported standard procedure[24]–[26] as follows: • 96 well microtiter plates were used to inoculate the cells at […] ranging from 4000–5000 cells/well depending on the replication time of individual cell lines. Roswell Park Memorial Institute culture medium (RPMI 1640 medium) containing 2 mM L-glutamine and fetal bovine serum was used to grow the cells at 37 °C, 5% CO2, 95% air and 100% relative humidity for 24 h. • Fixation of cells in two plates of each cell line in situ was done using trichloroacetic acid (TCA). This represented the measurement of cell population at the time of drug addition (Tz). • Dimethyl sulfoxide (DMSO) was used to dissolve the synthesized compounds at 400-fold the desired final maximum concentration and frozen prior to use. This frozen concentrate was melted and diluted to twice the final concentration with complete medium containing 50 µg/mL gentamycin at time of drug addition. • The final compound concentration was obtained by adding 100 µL of the synthesized compounds to the appropriate microtiter wells already containing 100 µL followed by incubation of the plates at 37 °C, 5% CO2, 95% air and 100% relative humidity for 48 h. • Fixation of the cells was achieved by gentle addition of 50 µL of cold 50% (w/v) TCA followed by incubation for 60 min at 4 °C. The supernatant was then discarded and the plates are washed 5 times with tap water and air dried. • Sulphorhodamine B (SRB) solution (100 µL) at 0.4% (w/v) in 1% acetic acid was added to each plate followed by incubation for 10 min at room temperature. The unbound dye was then removed by washing five times with 1% acetic acid and plates were air dried. • Dissolution of the bound stain was done using […] trizma base and the absorbance was read at […] wavelength using an automated plate reader. • The percentage growth inhibition was calculated as follows: Ti-Tz/C-Tz×100forconcentrationswhichTi≥Tz Ti-Tz/Tz×100forconcentrationswhichTi<Tz • Time zero (Tz) • Control growth (C) • Test growth in the presence of drug (Ti)

For another assay, the system named is A498. The conditions noted are these: Homo sapiens; A498, 10^–5 Molar; read-out: Percent growth inhibition. The protocol: as §1, §2, §3
A further assay has as its system NCI-H226. The conditions noted are these: Homo sapiens; NCI-H226, 10^–5 Molar; read-out: Percent growth inhibition. How it is done:
as §1, §2, §3

A further assay concerns HOP-62. The conditions noted are these: Homo sapiens; HOP-62, 10^–5 Molar; read-out: Percent growth inhibition. The protocol: as §1, §2, §3
The next assay deals with SNB-19. The conditions noted are these: Homo sapiens; SNB-19, 10^–5 Molar; read-out: Percent growth inhibition. The protocol: as §1, §2, §3
In another assay the test system is leukemia SR. The conditions noted are these: Homo sapiens; SR, 10^–5 Molar; read-out: Percent growth inhibition. How it is done: as §1, §2, §3
The test system of a further assay is OVCAR-4. The conditions noted are these: Homo sapiens; OVCAR-4, 10^–5 Molar; read-out: Percent growth inhibition. The protocol:
as §1, §2, §3

The subject of another assay is SNB-75. The conditions noted are these: Homo sapiens; SNB-75, 10^–5 Molar; read-out: Percent growth inhibition. The protocol: as §1, §2, §3
The next assay concerns PC-3. The conditions noted are these: Homo sapiens; PC-3, 10^–5 Molar; read-out: Percent growth inhibition. How it is done: as §1, §2, §3
Another assay concerns SF-268. The conditions noted are these: Homo sapiens; SF-268, 10^–5 Molar; read-out: Percent growth inhibition. How it is done:
as §1, §2, §3

The subject of the next assay is SN12C. The conditions noted are these: Homo sapiens, 10^–5 Molar, read-out: Percent growth inhibition. How it is done:
as §1, §2, §3

The test system of the next assay is MDA-MB-231/ATCC. The conditions noted are these: Homo sapiens, 10^–5 Molar, read-out: Percent growth inhibition. The protocol: as §1, §2, §3
A further assay concerns NCI/ADR-RES. The conditions noted are these: Homo sapiens, 10^–5 Molar, read-out: Percent growth inhibition. The protocol:
as §1, §2, §3

The subject of a further assay is MDA-MB-468. The conditions noted are these: Homo sapiens; MDA-MB-468, 10^–5 Molar; read-out: Percent growth inhibition. How it is done: as §1, §2, §3
The next assay concerns melanoma SK-MEL-5. The conditions noted are these: Homo sapiens; SK-MEL-5, 10^–5 Molar; read-out: Percent growth inhibition. The protocol:
as §1, §2, §3

The next assay has as its system LOX IMVI. The conditions noted are these: Homo sapiens, 10^–5 Molar, read-out: Percent growth inhibition. The protocol:
as §1, §2, §3

A further assay relates to IGROV1. The conditions noted are these: Homo sapiens, IGROV-1; IGROV1, 10^–5 Molar; read-out: Percent growth inhibition. How it is done:
as §1, §2, §3

Another assay concerns A549/ATCC. The conditions noted are these: Homo sapiens, 10^–5 Molar, read-out: Percent growth inhibition. How it is done: as §1, §2, §3
In a further assay the test system is SK-MEL-28. The conditions noted are these: Homo sapiens; SK-MEL-28, 10^–5 Molar; read-out: Percent growth inhibition. The protocol:
as §1, §2, §3

Another assay has as its system OVCAR-8. The conditions noted are these: Homo sapiens; OVCAR-8, 10^–5 Molar; read-out: Percent growth inhibition. The protocol: as §1, §2, §3
Another assay has as its system EKVX. The conditions noted are these: Homo sapiens, 10^–5 Molar, read-out: Percent growth inhibition. How it is done:
as §1, §2, §3

In another assay the test system is HCT-15. The conditions noted are these: Homo sapiens; HCT-15, 10^–5 Molar; read-out: Percent growth inhibition. The protocol:
as §1, §2, §3

Another assay has as its system CCRF-CEM. The conditions noted are these: Homo sapiens, 10^–5 Molar, read-out: Percent growth inhibition. How it is done:
as §1, §2, §3

The test system of another assay is RXF 393. The conditions noted are these: Homo sapiens, 48 h; RXF 393, 10^–5 Molar; read-out: Percent growth inhibition. How it is done:
as §1, §2, §3

Regarding `CCn1cc(C(=O)O)c(=O)c2cc(F)c(N3CCN(C(=O)c4ccc([N+](=O)[O-])cc4)C(C)C3)c(F)c21` (centres unmarked) [Compound 7d, 1-Ethyl-6,8-difluoro-7-(3-methyl-4-(4-nitrobenzoyl)piperazin-1-yl)-4-oxo-1,4-dihydroquinoline-3-carboxylic acid], the inhibition at 10 µM in the assay with K-562 was determined as 2.06%; in the assay with A498 it was 8.25%; with NCI-H226, 3.95%; in the assay with HOP-62 it was 7.44%; with SNB-19 it was 3.31%; in the assay on leukemia SR, 44.8%. Further, the inhibition at 10 µM with OVCAR-4 amounted to 8.82%; with SNB-75, 13.9%; with PC-3, 12%; in the assay on SF-268, 7.01%; in the assay with SN12C, 0.88%; with MDA-MB-231/ATCC it was 8.63%. Also, the inhibition at 10 µM with NCI/ADR-RES came to 3.34%; with MDA-MB-468, 2.79%; with melanoma SK-MEL-5 it was 0.86%; in the assay on LOX IMVI it was 9.8%.
On to `CCn1cc(C(=O)NN=Cc2ccccc2)c(=O)c2cc(F)c(N3CCNC(C)C3)c(F)c21` (centres unmarked) [Compound 3a, N'-Benzylidene-1-ethyl-6,8-difluoro-7-(3-methylpiperazin-1-yl)-4-oxo-1,4-dihydroquinoline-3-carbohydrazide], for which the inhibition at 10 µM is 42% in the assay on IGROV1; 139% with K-562; 0.4% with A498; 184% in the assay with A549/ATCC; 179% in the assay with SK-MEL-28; 71.6% in the assay on OVCAR-8. Further, the inhibition at 10 µM amounted to 12.6% with NCI-H226; 31.4% in the assay on HOP-62; 81.1% with SNB-19; 115% in the assay with leukemia SR; 65.7% in the assay with EKVX; 29.3% with OVCAR-4. The inhibition at 10 µM in the assay with SNB-75 is 7.18%; with PC-3, 51.1%; in the assay on HCT-15, 186%; with SF-268, 61.1%; in the assay on SN12C, 38.3%; in the assay on CCRF-CEM it was 152%. The inhibition at 10 µM with MDA-MB-231/ATCC worked out at 170%; in the assay with NCI/ADR-RES, 44%; in the assay on MDA-MB-468, 69.6%; with RXF 393 it was 161%; in the assay on melanoma SK-MEL-5 it was 88.1%; in the assay with LOX IMVI it was 187%.
Turning to `CCn1cc(C(=O)NN=Cc2ccc(Br)cc2)c(=O)c2cc(F)c(N3CCNC(C)C3)c(F)c21` (centres unmarked) [Compound 3c, N'-(4-Bromobenzylidene)-1-ethyl-6,8-difluoro-7-(3-methylpiperazin-1-yl)-4-oxo-1,4-dihydroquinoline-3-carbohydrazide], the inhibition at 10 µM is 28.7% in the assay on IGROV1; 113% in the assay on K-562; 1.99% with A498; 54.7% with A549/ATCC; 8.78% with SK-MEL-28; 42.2% in the assay on OVCAR-8. In addition, the inhibition at 10 µM came out at 2.69% in the assay with NCI-H226; 11.2% with HOP-62; 45.5% in the assay on SNB-19; 95.7% with leukemia SR; 13.1% in the assay with EKVX; 18.3% with OVCAR-4. Besides, the inhibition at 10 µM was 14.4% in the assay on SNB-75; 31.6% with PC-3; 119% in the assay with HCT-15; 37.4% in the assay on SF-268; 47.8% in the assay with SN12C; 70.3% in the assay with CCRF-CEM. For the same molecule, the inhibition at 10 µM came out at 45.2% in the assay on MDA-MB-231/ATCC; 16.7% in the assay on NCI/ADR-RES; 17.5% in the assay with MDA-MB-468; 38.8% with RXF 393; 17.6% in the assay on melanoma SK-MEL-5; 178% with LOX IMVI.
For the molecule `CCn1cc(C(=O)O)c(=O)c2cc(F)c(N3CCN(C(=O)c4ccccc4)C(C)C3)c(F)c21` (centres unmarked) [Compound 7a, 7-(4-Benzoyl-3-methylpiperazin-1-yl)-1-ethyl-6,8-difluoro-4-oxo-1,4-dihydroquinoline-3-carboxylic acid], the inhibition at 10 µM amounted to 3.14% in the assay with IGROV1; 7.84% with K-562; 19.1% in the assay with A498; 4.44% with SK-MEL-28; 4.61% in the assay with OVCAR-8; 2.44% in the assay with NCI-H226. For the same molecule, the inhibition at 10 µM was found to be 4.44% with HOP-62; 1.21% with EKVX; 20.5% in the assay on OVCAR-4; 21.7% with SNB-75; 13% with PC-3; 9.47% in the assay with SF-268. Moreover, the inhibition at 10 µM in the assay on CCRF-CEM came out at 2.26%; with MDA-MB-231/ATCC it was 16.6%; with NCI/ADR-RES it was 20.4%; with MDA-MB-468 it was 4.54%; in the assay on RXF 393, 6.68%; in the assay on melanoma SK-MEL-5 it was 6.55%. Further, the inhibition at 10 µM with LOX IMVI amounted to 19.1%.
